Data set [1] is described as follows: Measurement of fluorescence characteristics of dye compounds. In kind it is physicochemical. To be noted: 5-μM solution in DMSO. The source says: 5-μM solutions of Dye compounds 1 to 46 in DMSO were each prepared and measured for its excitation wavelength and fluorescence emission wavelength with an FL4500 fluorescence spectrometer manufactured by Hitachi High-Technologies Corporation.

In data set [2] the test system is cranial nerve tissue (brain) of juvenile zebrafish. Description: Example 3: brain fluorescence of juvenile zebrafish exposed to compound (23) probe liquid with or without MK571 and FTC. In kind it is in vivo. To be noted: concluded from single versus combined MK571 and FTC. The method, then:
A probe liquid 6 was obtained by changing the compound (8) used in the probe liquid 1 of Example 1 to the compound (23). Further, a probe liquid 7 was obtained by adding MK571 and FTC, each at 30 μM, as a transporter inhibitor.
4 mL of the probe liquid 6 and 7 and each of 20 juvenile zebrafish on 7 days post fertilization were each loaded into any well of a 6-well multiplate, and exposure was started. The zebrafish during exposure were each taken out of the well 60 minutes, 180 minutes and 360 minutes after the starting of the exposure, and in accordance with the same operation as in Example 1, fluorescence images of a cranial nerve tissue and a blood vessel on the zebrafish body side were captured and fluorescence intensities in the CNS tissue and the blood vessel were evaluated.

Here are results for 44 compounds from patent US10227337B2, “Evaluation probe for central nervous system permeability, evaluation method for central nervous system permeability, and screening method using an evaluation probe for central nervous system permeability” (CANON KABUSHIKI KAISHA, priority 2011, dated 2019).

On to `CCN1C(=O)/C(=c2\s/c(=C/c3ccc4c(c3)C3CCCC3N4c3ccc4cc(OC)ccc4c3)c(=O)n2CC(=O)O)SC1=S` (centres unmarked) [Compound 34], for which, in data set [1], the Excitation wavelength λex came out at 543 nm and the Fluorescence wavelength λem was 649 nm.
In data set [1], `C=CCN1C(=O)/C(=c2\s/c(=C/c3ccc4c(c3)C3CCCC3N4c3ccccc3)c(=O)n2CC(=O)O)SC1=S` (centres unmarked) [Compound 42] showed an Excitation wavelength λex of 543 nm and a Fluorescence wavelength λem of 636 nm.
On the same counts, the results for `CCN1c2ccc(/C=C3/SC(=S)N(CC(=O)O)C3=O)cc2C2CCCC21` (centres unmarked) [Compound 14] are 507 nm and 585 nm.
On the same counts, the results for `COc1ccc2cc(N3c4ccc(/C=C5/SC(=S)N(CCC(=O)O)C5=O)cc4C4CCCC43)ccc2c1` (centres unmarked) [Compound 5] are 521 nm and 646 nm.
On the same counts, the results for `CSc1ccc(N2c3ccc(/C=C4/SC(=S)N(CCC(=O)O)C4=O)cc3C3CCCC32)cc1` (centres unmarked) [Compound 12] are 518 nm and 647 nm.
In data set [1], `CCN1c2ccc(/C=C3/SC(=S)N(CCC(=O)O)C3=O)cc2CC1C` (centres unmarked) [Compound 7] returned an Excitation wavelength λex of 509 nm and a Fluorescence wavelength λem of 593 nm.
On the same counts, the results for `CCN1C(=O)/C(=c2\s/c(=C/c3ccc4c(c3)CC(C)N4CC)c(=O)n2CC(=O)O)SC1=S` (centres unmarked) [Compound 36] are 541 nm and 640 nm.
On the same counts, the results for `CCCCCN1C(=O)/C(=c2\s/c(=C/c3ccc4c(c3)C3CCCC3N4c3ccc(OC)cc3)c(=O)n2CC(=O)OCC)SC1=S` (centres unmarked) [Compound 44] are 548 nm and 656 nm.
On the same counts, the results for `CCN1C(=O)/C(=c2\s/c(=C/c3ccc4c(c3)CCN4CC)c(=O)n2CC(=O)O)SC1=S` [Compound 38] are 541 nm and 642 nm.
For the compound `CCN1C(=O)/C(=c2\s/c(=C/c3ccc4c(c3)CCN4c3ccccc3)c(=O)n2CC(=O)O)SC1=S` [Compound 39], in data set [1], the Excitation wavelength λex turned out to be 536 nm and the Fluorescence wavelength λem was found to be 640 nm.
On the same counts, the results for `CCN1C(=O)/C(=c2\s/c(=C/c3ccc4c(c3)C3CCCC3N4c3cccc(SC)c3)c(=O)n2CC(=O)O)SC1=S` (centres unmarked) [Compound 33] are 536 nm and 632 nm.
Turning to `COc1ccc2cc(N3c4ccc(/C=C5/SC(=S)N(CC(=O)O)C5=O)cc4C4CCCC43)ccc2c1` (centres unmarked) [Compound 26], in data set [1], the Excitation wavelength λex amounted to 525 nm and the Fluorescence wavelength λem stood at 646 nm.
In data set [1], `O=C(O)CN1C(=O)/C(=C\c2cc(Br)c3c(c2)C2CCCC2N3c2ccc(Br)cc2)SC1=S` (centres unmarked) [Compound 21] had an Excitation wavelength λex of 476 nm and a Fluorescence wavelength λem of 580 nm.
On the same counts, the results for `CCN1c2ccc(/C=C3/SC(=S)N(CC(=O)O)C3=O)cc2CC1C` (centres unmarked) [Compound 16] are 510 nm and 590 nm.
For the compound `CCN1CCc2cc(/C=C3/SC(=S)N(CCC(=O)O)C3=O)ccc21` [Compound 8], in data set [1], the Excitation wavelength λex stood at 510 nm and the Fluorescence wavelength λem turned out to be 597 nm.
In data set [1], `O=C(O)CCN1C(=O)/C(=C\c2ccc3c(c2)C2CCCC2N3Cc2ccccc2)SC1=S` (centres unmarked) [Compound 3] came in with an Excitation wavelength λex of 510 nm and a Fluorescence wavelength λem of 584 nm.
In the case of `COc1ccc(N2c3ccc(/C=C4/SC(=S)N(CC(=O)O)C4=O)cc3C3CCCC32)cc1` (centres unmarked) [Compound 23], the “transport by transporters (substrate property)” value in data set [2] is “transported by both of MRP and BCRP”. Besides, in data set [1], the Excitation wavelength λex worked out at 518 nm and the Fluorescence wavelength λem worked out at 637 nm.
As to `CCn1c2ccccc2c2cc(/C=C3/SC(=S)N(CCC(=O)O)C3=O)ccc21` [Compound 9], in data set [1], the Excitation wavelength λex came to 452 nm and the Fluorescence wavelength λem came to 540 nm.
On the same counts, the results for `CCN1C(=O)/C(=c2\s/c(=C/c3ccc4c(c3)C3CCCC3N4c3ccc(SC)cc3)c(=O)n2CC(=O)O)SC1=S` (centres unmarked) [Compound 32] are 544 nm and 658 nm.
On the same counts, the results for `CCN1c2ccc(/C=C3/SC(=S)N(CCCCCC(=O)O)C3=O)cc2C2CCCC21` (centres unmarked) [Compound 45] are 513 nm and 589 nm.
Regarding `CCN1CCc2cc(/C=C3/SC(=S)N(CC(=O)O)C3=O)ccc21` [Compound 19], in data set [1], the Excitation wavelength λex was determined as 511 nm and the Fluorescence wavelength λem stood at 594 nm.
On the same counts, the results for `O=C(O)CN1C(=O)/C(=C\c2ccc3c(c2)C2CCCC2N3c2ccccc2)SC1=S` (centres unmarked) [Compound 17] are 508 nm and 604 nm.
In data set [1], `O=C(O)CN1C(=O)/C(=C\c2cc(Br)c3c(c2)C2CCCC2N3Cc2ccccc2)SC1=S` (centres unmarked) [Compound 24] showed an Excitation wavelength λex of 486 nm and a Fluorescence wavelength λem of 578 nm.
On the same counts, the results for `CCN1C(=O)/C(=c2\s/c(=C/c3cc(Br)c4c(c3)C3CCCC3N4Cc3ccccc3)c(=O)n2CC(=O)O)SC1=S` (centres unmarked) [Compound 37] are 525 nm and 616 nm.
In data set [1], `O=C(O)CCN1C(=O)/C(=C\c2cc(Br)c3c(c2)C2CCCC2N3c2ccc(Br)cc2)SC1=S` (centres unmarked) [Compound 1] registered an Excitation wavelength λex of 474 nm and a Fluorescence wavelength λem of 590 nm.
As for `CCN1C(=O)/C(=c2\s/c(=C/c3ccc4c(c3)C3CCCC3N4c3ccccc3)c(=O)n2CC(=O)O)SC1=S` (centres unmarked) [Compound 29], in data set [1], the Excitation wavelength λex was determined as 525 nm and the Fluorescence wavelength λem came out at 610 nm.
Turning to `O=C(O)CCN1C(=O)/C(=C\c2ccc3c(c2)C2CCCC2N3c2ccccc2)SC1=S` (centres unmarked) [Compound 4], in data set [1], the Excitation wavelength λex stood at 502 nm and the Fluorescence wavelength λem worked out at 604 nm.
On the same counts, the results for `CSc1cccc(N2c3ccc(/C=C4/SC(=S)N(CC(=O)O)C4=O)cc3C3CCCC32)c1` (centres unmarked) [Compound 18] are 509 nm and 604 nm.
In data set [1], `COc1ccc(N2c3ccc(/C=C4/SC(=S)N(CCC(=O)O)C4=O)cc3C3CCCC32)cc1` (centres unmarked) [Compound 2] came in with an Excitation wavelength λex of 521 nm and a Fluorescence wavelength λem of 634 nm.
On the same counts, the results for `CCn1c2ccccc2c2cc(/C=C3/SC(=S)N(CC(=O)O)C3=O)ccc21` [Compound 25] are 453 nm and 536 nm.
On the same counts, the results for `CCN1C(=O)/C(=c2\s/c(=C/c3ccc4c(c3)C3CCCC3N4c3ccc(OC)cc3)c(=O)n2CC(=O)O)SC1=S` (centres unmarked) [Compound 31] are 550 nm and 650 nm.
On the same counts, the results for `CCOC(=O)CCN1C(=O)/C(=C\c2ccc3c(c2)C2CCCC2N3CC)SC1=S` (centres unmarked) [Compound 27] are 518 nm and 590 nm.
Regarding `CN1c2ccc(/C=C3/SC(=S)N(CCC(=O)O)C3=O)cc2C2CCCC21` (centres unmarked) [Compound 6], in data set [1], the Excitation wavelength λex was 517 nm and the Fluorescence wavelength λem stood at 590 nm.
On the same counts, the results for `CCN1c2ccc(/C=C3/SC(=S)N(CCC(=O)O)C3=O)cc2C2CCCC21` (centres unmarked) [Compound 13] are 513 nm and 587 nm.
On the same counts, the results for `O=C(O)CN1C(=O)/C(=C\c2ccc3c(c2)CCN3c2ccccc2)SC1=S` [Compound 22] are 505 nm and 612 nm.
On the same counts, the results for `CCN1c2ccc(/C=C/C=C3/SC(=S)N(CCC(=O)O)C3=O)cc2C2CCCC21` (centres unmarked) [Compound 11] are 564 nm and 671 nm.
With `CCN1C(=O)/C(=c2\s/c(=C/c3ccc4c(c3)c3ccccc3n4CC)c(=O)n2CC(=O)O)SC1=S` [Compound 40], in data set [1], the Excitation wavelength λex stood at 494 nm and the Fluorescence wavelength λem was 551 nm.
On the same counts, the results for `CCN1c2ccc(/C=C3/SC(=S)N(CCCCCCCCCCC(=O)O)C3=O)cc2C2CCCC21` (centres unmarked) [Compound 46] are 516 nm and 585 nm.
On the same counts, the results for `CCN1C(=O)/C(=c2\s/c(=C/c3cc(Br)c4c(c3)C3CCCC3N4c3ccc(Br)cc3)c(=O)n2CC(=O)O)SC1=S` (centres unmarked) [Compound 35] are 520 nm and 617 nm.
On the same counts, the results for `C=CCN1C(=O)/C(=c2\s/c(=C/c3ccc4c(c3)C3CCCC3N4c3ccc(OC)cc3)c(=O)n2CC(=O)O)SC1=S` (centres unmarked) [Compound 41] are 515 nm and 624 nm.
In data set [1], `CCCCCCCCN1C(=O)/C(=c2\s/c(=C/c3ccc4c(c3)C3CCCC3N4c3ccc(OC)cc3)c(=O)n2CC(=O)OCC)SC1=S` (centres unmarked) [Compound 43] came in with an Excitation wavelength λex of 552 nm and a Fluorescence wavelength λem of 668 nm.
On the same counts, the results for `O=C(O)CN1C(=O)/C(=C\c2ccc3c(c2)C2CCCC2N3Cc2ccccc2)SC1=S` (centres unmarked) [Compound 20] are 506 nm and 581 nm.
On the same counts, the results for `CCCN1c2ccc(/C=C3/SC(=S)N(CCC(=O)O)C3=O)cc2C2CCCC21` (centres unmarked) [Compound 10] are 519 nm and 592 nm.
On the same counts, the results for `CSc1ccc(N2c3ccc(/C=C4/SC(=S)N(CC(=O)O)C4=O)cc3C3CCCC32)cc1` (centres unmarked) [Compound 15] are 517 nm and 638 nm.
